The values below come from patent US12590062B2, “PD-1/PD-L1 inhibitors” (Gilead Sciences, Inc., priority 2017, dated 2026).

The target in one test is PD-1/PD-L1 (Homo sapiens, UniProt Q9NZQ7). Nature of the test: PD-1/PD-L1 biochemical protein-protein interaction assay (ALPHA). The class given is binding. Particulars: 0.3 nM His tagged PD-L1, 2.5 nM biotinylated Fc-PD-1, 60 minutes at 25° C., read-out: IC50 PD-L1-PD-1 Alpha IC50-mono PD-L1-fcP-D1. In short, it runs like this: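 ALPHA bead proximity assay of extracellular domains: 0.3 nM His-PD-L1 with 2.5 nM biotinylated Fc-PD-1 in 25 mM Hepes pH 7.4, 150 mM NaCl, 3.4 mM EDTA, 0.005% Tween 20, 0.01% BSA, 60 min at 25 °C. Anti-His acceptor and streptavidin donor beads added; IC50 from four-parameter fit of signal loss.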
Sequence of PD-1/PD-L1 (Q9NZQ7 19-238 limits assumed): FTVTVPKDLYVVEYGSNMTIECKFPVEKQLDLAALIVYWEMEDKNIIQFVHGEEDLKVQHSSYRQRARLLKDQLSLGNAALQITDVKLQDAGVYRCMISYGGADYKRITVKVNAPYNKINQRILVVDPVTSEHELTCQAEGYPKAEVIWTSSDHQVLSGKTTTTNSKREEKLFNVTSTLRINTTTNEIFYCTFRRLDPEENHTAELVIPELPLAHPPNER

For another test, the target named is T1, PD-1/PD-L1 interaction (Homo sapiens, UniProt Q9NZQ7).
T1 construct: expressed in transfected cells; host or cells: CHO cells (aAPC-PD-L1) co-cultured with Jurkat cells overexpressing PD-1 and an NFAT-luciferase reporter
T1 sequence (Q9NZQ7 19-290): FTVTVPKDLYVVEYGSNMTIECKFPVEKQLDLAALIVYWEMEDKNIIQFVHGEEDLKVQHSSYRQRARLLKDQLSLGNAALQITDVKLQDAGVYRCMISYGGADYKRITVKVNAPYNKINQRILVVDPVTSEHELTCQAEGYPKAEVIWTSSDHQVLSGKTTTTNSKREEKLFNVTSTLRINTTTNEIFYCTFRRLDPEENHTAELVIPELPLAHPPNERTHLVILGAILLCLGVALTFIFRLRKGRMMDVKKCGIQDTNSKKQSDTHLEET
Nature of the test: PD-1/PD-L1 NFAT reporter co-culture assay. The format is cell-based. Particulars: Jurkat PD-1 NFAT-luciferase cells co-cultured with aAPC-PD-L1 CHO cells, 6 hrs at 37° C.; read-out: EC50 NFAT Luciferase. In short, it runs like this: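 First, CHO cells displaying anti-CD3 antibody and PD-L1 were plated overnight. Next, compound-treated PD-1 Jurkat NFAT-luciferase reporter cells in 2% FBS RPMI were added for 6 h at 37 °C. Finally, ONE-Glo luminescence was read and EC50 values fitted with a four-parameter equation.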

SMILES strings stand for the structures. Where only a bound is given, the exact number is not on record here.

Take `Cc1c(COc2cc(OCc3cncc(C#N)c3)c(CN(C)C)cc2Cl)cccc1-c1cccc(-c2ccc(CN(C)C)s2)c1C` [Example 366, 5-((4-chloro-2-((dimethylamino)methyl)-5-((3′-(5-((dimethylamino)methyl)thiophen-2-yl)-2,2′-dimethyl-[1,1′-biphenyl]-3-yl)methoxy)phenoxy)methyl)nicotinonitrile]: on PD-1/PD-L1, the IC50 worked out at 2.33 nM. Also, on PD-1/PD-L1 interaction, the EC50 was determined as 2840 nM.
Taken in the same sequence, the figures for `Cc1c(COc2cc(OCc3cncc(C#N)c3)c(CN[C@@](C)(CO)C(=O)O)cc2Cl)cccc1-c1cccc(-c2ccc3c(c2)OCC3N(C)C)c1C` (stereo partly drawn) [Example 376, (2S)-2-((5-chloro-2-((5-cyanopyridin-3-yl)methoxy)-4-((3′-(3-(dimethylamino)-2,3-dihydrobenzofuran-6-yl)-2,2′-dimethyl-[1,1′-biphenyl]-3-yl)methoxy)benzyl)amino)-3-hydroxy-2-methylpropanoic acid] were 0.346 nM and 770 nM.
Taken in the same sequence, the figures for `Cc1c(COc2cc(OCc3cncc(C#N)c3)c(CN[C@@](C)(CO)C(=O)O)cc2Cl)cccc1-c1cccc(-c2ccc3c(c2)CC[C@H]3N(C)C)c1C` [Example 378, (S)-2-((5-chloro-2-((5-cyanopyridin-3-yl)methoxy)-4-((3′-((R)-1-(dimethylamino)-2,3-dihydro-1H-inden-5-yl)-2,2′-dimethyl-[1,1′-biphenyl]-3-yl)methoxy)benzyl)amino)-3-hydroxy-2-methylpropanoic acid] were 0.127 nM and 191 nM.
Taken in the same sequence, the figures for `Cc1c(COc2nc(OCc3cncc(C#N)c3)c(CNC[C@@H](O)CC(=O)O)cc2Br)cccc1-c1cccc(-c2ccc(OCCNC[C@@H](O)CC(=O)O)cc2)c1C` [Example 385, (S)-4-((2-((3″-(((3-bromo-5-((((S)-3-carboxy-2-hydroxypropyl)amino)methyl)-6-((5-cyanopyridin-3-yl)methoxy)pyridin-2-yl)oxy)methyl)-2′,2″-dimethyl-[1,1′:3′,1″-terphenyl]-4-yl)oxy)ethyl)amino)-3-hydroxybutanoic acid] were 0.051 nM and 84 nM.
With `Cc1c(COc2cc(OCc3cncc(C#N)c3)c(CNC[C@@H](O)CC(=O)O)cc2Cl)cccc1-c1cccc(-n2cc(CN)nn2)c1C` [Example 386, (S)-4-((4-((3′-(4-(aminomethyl)-1H-1,2,3-triazol-1-yl)-2,2′-dimethyl-[1,1′-biphenyl]-3-yl)methoxy)-5-chloro-2-((5-cyanopyridin-3-yl)methoxy)benzyl)amino)-3-hydroxybutanoic acid], the IC50 on PD-1/PD-L1 came out at 0.302 nM. Moreover, the EC50 on PD-1/PD-L1 interaction turned out to be 868 nM.
Taken in the same sequence, the figures for `Cc1c(COc2cc(OCc3cncc(C#N)c3)c(CNC[C@@H](O)CC(=O)O)cc2Cl)cccc1-c1cccc(-c2cn(CCCNC[C@@H](O)CC(=O)O)nn2)c1C` [Example 387, (S)-4-((3-(4-(3′-((4-((((S)-3-carboxy-2-hydroxypropyl)amino)methyl)-2-chloro-5-((5-cyanopyridin-3-yl)methoxy)phenoxy)methyl)-2,2′-dimethyl-[1,1′-biphenyl]-3-yl)-1H-1,2,3-triazol-1-yl)propyl)amino)-3-hydroxybutanoic acid] were 0.051 nM and 362 nM.
Taken in the same sequence, the figures for `Cc1c(COc2cc(OCc3cncc(C#N)c3)c(CNC[C@@H](O)CC(=O)O)cc2Cl)cccc1-c1cccc(-c2ccn3cc(CNC[C@@H](O)CC(=O)O)nc3c2)c1C` [Example 397, (S)-4-(((7-(3′-((4-((((S)-3-carboxy-2-hydroxypropyl)amino)methyl)-2-chloro-5-((5-cyanopyridin-3-yl)methoxy)phenoxy)methyl)-2,2′-dimethyl-[1,1′-biphenyl]-3-yl)imidazo[1,2-a]pyridin-2-yl)methyl)amino)-3-hydroxybutanoic acid] were 0.064 nM and 709 nM.
Taken in the same sequence, the figures for `COc1cc(OCc2cccc(-c3cccc(COc4nc(OC)c(CNC5(C(=O)O)CCC5)cc4Cl)c3C)c2C)c(Cl)cc1CNC1(C(=O)O)CCC1` [Example 486] were 0.146 nM and 112 nM.
Turning to `Cc1c(COc2nc(OCc3cc(C#N)cc(C#N)c3)c(CNC[C@@H](O)CC(=O)O)cc2Br)cccc1-c1cccc(-c2ccc(OCCNC[C@@H](O)CC(=O)O)cc2)c1C` [Example 515], at PD-1/PD-L1, the IC50 was 0.203 nM. Also, at PD-1/PD-L1 interaction, the EC50 amounted to 95 nM.
As to `Cc1c(COc2cc(OCc3cncc(C#N)c3)c(CN[C@@](C)(CO)C(=O)O)cc2Cl)cccc1-c1cccc(-c2ccc(S(N)(=O)=O)cc2)c1C` [Example 564], the IC50 on PD-1/PD-L1 was found to be 0.293 nM. Besides, the half-maximal effective concentration (EC50) on PD-1/PD-L1 interaction was 80 nM.
The like results for `COC1CN(C2CCc3cc(-c4cccc(-c5cccc(COc6cc(OCc7cncc(C#N)c7)c(CN[C@@](C)(CO)C(=O)O)cc6Cl)c5C)c4C)ccc32)C1` (some centres unmarked) [Example 585] were, in that order, 0.098 nM and 182 nM.
The like results for `COc1nc(OCc2cccc(-c3cccc(COc4nc(OCc5cncc(C#N)c5)c(CNC[C@@H](O)CC(=O)O)cc4Br)c3C)c2C)c(Br)cc1CNC[C@@H](O)CC(=O)O` [Example 586] were, in that order, 0.836 nM and 181 nM.
The like results for `COc1nc(O[C@@H]2c3cccc(-c4cccc5c4C[C@@H](F)[C@@H]5Oc4nc(OC)c(CNC[C@@H](O)CC(=O)O)cc4Cl)c3C[C@H]2F)c(Cl)cc1CNC[C@@H](O)CC(=O)O` [Example 639, (3S,3′S)-4,4′-((((((1R,1′R,2R,2′R)-2,2′-difluoro-2,2′,3,3′-tetrahydro-1H,1′H-[4,4′-biindene]-1,1′-diyl)bis(oxy))bis(5-chloro-2-methoxypyridine-6,3-diyl))bis(methylene))bis(azanediyl))bis(3-hydroxybutanoic acid)] were, in that order, 1.85 nM and 942 nM.
On to `COc1nc(O[C@@H]2c3cccc(-c4cccc5c4C[C@H](F)[C@@H]5Oc4nc(OC)c(CNC[C@@H](O)CC(=O)O)cc4Cl)c3C[C@@H]2F)c(Cl)cc1CNC[C@@H](O)CC(=O)O` [Example 640, (3S,3′S)-4,4′-((((((1R,1′R,2S,2′S)-2,2′-difluoro-2,2′,3,3′-tetrahydro-1H,1′H-[4,4′-biindene]-1,1′-diyl)bis(oxy))bis(5-chloro-2-methoxypyridine-6,3-diyl))bis(methylene))bis(azanediyl))bis(3-hydroxybutanoic acid)], for which, at PD-1/PD-L1, the IC50 came to 1.09 nM. The EC50 on PD-1/PD-L1 interaction is ≥ 50000 nM.
Taken in the same sequence, the figures for `Cc1c(-c2ccc(OCCNC[C@@H](O)CC(=O)O)cc2)cccc1-c1cccc2c1CC[C@@H]2Oc1nc(OCc2cncc(C#N)c2)c(CNC[C@@H](O)CC(=O)O)cc1Cl` [Example 675] were 0.064 nM and 95 nM.
The like results for `Cc1c(-c2ccc(OCCNC[C@@H](O)CC(=O)O)cc2)cccc1-c1cccc2c1CC[C@@H]2Oc1nc(OCc2cncc(C#N)c2)c(CNC[C@@H](O)CC(=O)O)cc1Br` [Example 676] were, in that order, 0.064 nM and 62 nM.
As to `O=C(O)C[C@H](O)CNCc1ccc(OC2CCc3c(-c4cccc5c4CCC5Oc4ccc(CNC[C@@H](O)CC(=O)O)cc4)cccc32)cc1` (some centres unmarked) [Example 681], the 50% inhibitory concentration (IC50) on PD-1/PD-L1 turned out to be 8.91 nM. Also, at PD-1/PD-L1 interaction, the EC50 is ≥ 50000 nM.
Take `CS(=O)(=O)c1cncc(COc2nc(O[C@H]3CCc4c(-c5cccc6c5CC[C@@H]6Oc5nc(OCc6cncc(S(C)(=O)=O)c6)c(CN6C[C@@H](O)CC6=O)cc5Cl)cccc43)c(Cl)cc2CNC[C@@H](O)CC(=O)O)c1` [Example 693]: on PD-1/PD-L1, the IC50 turned out to be 0.585 nM. For the same molecule, the EC50 at PD-1/PD-L1 interaction is 120 nM.
The like results for `CS(=O)(=O)c1cncc(COc2nc(O[C@H]3CCc4c(-c5cccc6c5CC[C@@H]6Oc5nc(OCc6cncc(S(C)(=O)=O)c6)c(CNC[C@@H](O)CC(=O)O)cc5Cl)cccc43)c(Cl)cc2CNC[C@@H](O)CC(=O)O)c1` [Example 694] were, in that order, 0.051 nM and 96 nM.
Turning to `Cc1c(-c2ccc(OCCNC[C@@H](O)CC(=O)O)cc2)cccc1-c1cccc2c1CC[C@@H]2Oc1nc(OCc2cc(C#N)cc(C#N)c2)c(CNC[C@@H](O)CC(=O)O)cc1Br` [Example 753], the IC50 at PD-1/PD-L1 was 0.064 nM. For the same molecule, at PD-1/PD-L1 interaction, the EC50 stood at 35 nM.
Taken in the same sequence, the figures for `CNC(=O)COc1nc(O[C@H]2CCc3c(-c4cccc(-c5ccc(OCCNC[C@@H](O)CC(=O)O)cc5)c4C)cccc32)c(Br)cc1CNC[C@@H](O)CC(=O)O` [Example 754] were 0.091 nM and 434 nM.
Taken in the same sequence, the figures for `CNC(=O)COc1nc(O[C@H]2CCc3c(-c4cccc(-c5ccc(OCCNC[C@@H](O)CC(=O)O)cc5)c4C)cccc32)ccc1CNC[C@@H](O)CC(=O)O` [Example 756] were 1.16 nM and 6590 nM.
